Strand notation (5' to 3'): a small letter for the sugar, then the base; units joined by * are phosphorothioate-linked, units joined directly phosphodiester-linked; [ ] holds rarer units or linkages, { } end groups; capitals alone tell only the bases. e = 2'-O-(2-methoxyethyl) (MOE); [5mC] = 5-methylcytosine; d = 2'-deoxy (DNA)
Test system: human Factor 7 mRNA
Test: Antisense inhibition of human Factor 7 with short (14-mer) oligonucleotides in HepB3 cells, electroporation 1,000 nM
Format: cell-based
Details: electroporation, 1,000 nM antisense oligonucleotide, approximately 24 hours, Factor 7 mRNA relative to untreated control cells
Source text: Short antisense oligonucleotides (shortmers) were designed to target a Factor 7 nucleic acid. The shortmers in Table 17 were designed as 2-10-2 MOE gapmers. The gapmers are 14 nucleotides in length, wherein the central gap segment is comprised of 10 2′-deoxynucleotides and is flanked on both sides (in the 5′ and 3′ directions) by wings comprising 2 nucleotides each. Each nucleotide in the 5′ wing segment and each nucleotide in the 3′ wing segment has a 2′-MOE modification. The internucleoside linkages throughout each gapmer are phosphorothioate (P═S) linkages. All cytidine residues throughout each gapmer are 5-methylcytidines.
Shortmers were evaluated for their ability to reduce human Factor 7 mRNA in HepB3 cells and compared with one 5-10-5 chimeric oligonucleotide from Table 16, ISIS 407939. HepB3 cells at a density of 20,000 cells per well in a 96-well plate were transfected using electroporation with 1,000 nM of antisense oligonucleotide. After a treatment period of approximately 24 hours, RNA was isolated from the cells and Factor 7 mRNA levels were measured by real-time RT-PCR, as described herein. Factor 7 mRNA levels were adjusted according to total RNA content as measured by RIBOGREEN®. Results are presented in Table 17 as percent inhibition of Factor 7 mRNA, relative to untreated control cells. ISIS 407939 is the first oligonucleotide in Table 17 to which the shortmers were compared, and is marked by an asterisk (*).

Row | Substance | % Inhibition
1 | 435681 (antisense eA*eT*dG*dA*d[5mC]*d[5mC]*dT*dG*d[5mC]*dG*d[5mC]*d[5mC]*eA*e[5mC]) [compound 435681] | 40%
2 | 435682 (antisense eG*eG*dA*dT*dG*dA*dT*dG*dA*d[5mC]*d[5mC]*dT*eG*e[5mC]) [compound 435682] | 36%
3 | 435683 (antisense eA*eT*dG*dT*d[5mC]*dG*dT*dG*dG*dT*dT*dG*eG*eT) [compound 435683] | 3%
4 | 435684 (antisense eA*eG*d[5mC]*dA*dG*d[5mC]*dG*d[5mC]*dG*dA*dT*dG*eT*e[5mC]) [compound 435684] | 56%
5 | 435685 (antisense eA*eG*dG*dA*d[5mC]*d[5mC]*dA*d[5mC]*dG*dG*dG*d[5mC]*eT*eG) [compound 435685] | 40%
6 | 435686 (antisense e[5mC]*eA*dG*dT*dG*dA*dG*dG*dA*d[5mC]*d[5mC]*dA*e[5mC]*eG) [compound 435686] | 31%
7 | 435687 (antisense eA*eT*dG*dG*dT*d[5mC]*dA*dG*dT*dG*dA*dG*eG*eA) [compound 435687] | 7%
8 | 435688 (antisense eA*e[5mC]*d[5mC]*dA*d[5mC]*dA*dT*dG*dG*dT*d[5mC]*dA*eG*eT) [compound 435688] | 0%
9 | 435689 (antisense eT*eT*d[5mC]*dG*dG*dG*d[5mC]*dA*dG*dG*d[5mC]*dA*eG*eA) [compound 435689] | 23%
10 | 435690 (antisense eG*eT*d[5mC]*d[5mC]*dG*dT*dT*d[5mC]*dG*dG*dG*d[5mC]*eA*eG) [compound 435690] | 55%
11 | 435691 (antisense e[5mC]*eA*dG*d[5mC]*d[5mC]*dG*d[5mC]*dT*dG*dA*d[5mC]*d[5mC]*eA*eA) [compound 435691] | 25%
12 | 435692 (antisense e[5mC]*eG*dG*dT*d[5mC]*d[5mC]*dA*dG*d[5mC]*dA*dG*d[5mC]*eT*eG) [compound 435692] | 32%
13 | 435693 (antisense eG*eG*d[5mC]*dA*dG*dT*d[5mC]*d[5mC]*dT*dG*dG*dG*eT*e[5mC]) [compound 435693] | 43%
14 | 435694 (antisense e[5mC]*eT*dG*d[5mC]*dA*dG*dG*d[5mC]*dA*dG*dT*d[5mC]*e[5mC]*eT) [compound 435694] | 39%
15 | 435695 (antisense eG*eA*d[5mC]*dT*dG*d[5mC]*dT*dG*d[5mC]*dA*dG*dG*e[5mC]*eA) [compound 435695] | 48%
16 | 435696 (antisense e[5mC]*eA*dG*dA*dA*d[5mC]*dA*dT*dG*dT*dA*d[5mC]*eT*e[5mC]) [compound 435696] | 10%
17 | 435697 (antisense eA*eG*dT*dA*dG*d[5mC]*d[5mC]*dG*dG*d[5mC]*dA*d[5mC]*eA*eG) [compound 435697] | 53%
18 | 435698 (antisense e[5mC]*e[5mC]*dT*dT*dG*d[5mC]*dA*dG*dG*dA*dG*dT*e[5mC]*e[5mC]) [compound 435698] | 61%
19 | 435699 (antisense eG*e[5mC]*d[5mC]*d[5mC]*d[5mC]*dA*dG*d[5mC]*dT*dG*dA*d[5mC]*eG*eA) [compound 435699] | 48%
20 | 435714 (antisense eA*e[5mC]*dT*d[5mC]*dG*dA*dT*dG*dT*dA*d[5mC]*dT*eG*eG) [compound 435714] | 3%
21 | 435715 (antisense e[5mC]*eA*dG*d[5mC]*d[5mC]*dA*d[5mC]*dT*d[5mC]*dG*dA*dT*eG*eT) [compound 435715] | 35%
22 | 435716 (antisense eT*eT*dT*dT*dG*d[5mC]*dA*dG*d[5mC]*d[5mC]*dA*d[5mC]*eT*e[5mC]) [compound 435716] | 22%
23 | 435717 (antisense eT*eG*dA*dG*d[5mC]*dT*dT*dT*dT*dG*d[5mC]*dA*eG*e[5mC]) [compound 435717] | 0%
24 | 435718 (antisense eG*e[5mC]*dT*d[5mC]*dG*d[5mC]*dA*dG*dG*dA*dG*dG*eA*e[5mC]) [compound 435718] | 26%
25 | 435719 (antisense e[5mC]*eA*dG*d[5mC]*d[5mC]*dT*dT*dG*dG*d[5mC]*dT*dT*eT*e[5mC]) [compound 435719] | 50%
26 | 435720 (antisense eA*eG*dG*d[5mC]*dT*d[5mC]*dA*dG*d[5mC]*dT*dG*dG*eG*e[5mC]) [compound 435720] | 16%

Row | Substance | % Inhibition
27 | 435721 (antisense eT*eA*dA*dG*dG*dA*dG*dG*d[5mC]*dT*d[5mC]*dA*eG*e[5mC]) [compound 435721] | 12%
28 | 435722 (antisense eT*eG*dG*dG*d[5mC]*dT*dT*dG*dG*d[5mC]*dT*dG*eA*eA) [compound 435722] | 50%
29 | 435723 (antisense eG*e[5mC]*d[5mC]*dA*dG*d[5mC]*dA*dG*dA*dT*d[5mC]*dA*e[5mC]*eG) [compound 435723] | 68%
30 | 435724 (antisense e[5mC]*eT*dG*dA*dG*dG*d[5mC]*d[5mC]*dA*dG*d[5mC]*dA*eG*eA) [compound 435724] | 52%
31 | 435725 (antisense eG*e[5mC]*dA*dG*d[5mC]*d[5mC]*dT*dG*dA*dG*dG*d[5mC]*e[5mC]*eA) [compound 435725] | 79%
32 | 435726 (antisense eG*e[5mC]*dA*dA*dT*dG*dA*dA*dG*dG*d[5mC]*dA*eG*eA) [compound 435726] | 26%
33 | 435727 (antisense eT*eG*dG*dA*dG*dT*d[5mC]*dA*dG*d[5mC]*dA*dT*e[5mC]*eG) [compound 435727] | 73%
34 | 435728 (antisense eA*e[5mC]*dA*d[5mC]*dA*dT*dG*dG*dA*dG*dT*d[5mC]*eA*eG) [compound 435728] | 16%
35 | 435729 (antisense eA*e[5mC]*dA*dG*d[5mC]*dA*d[5mC]*dA*d[5mC]*dA*dT*dG*eG*eA) [compound 435729] | 30%
36 | 435730 (antisense eT*eA*dA*dA*d[5mC]*dA*dA*d[5mC]*d[5mC]*dG*d[5mC]*d[5mC]*eT*eT) [compound 435730] | 49%
37 | 435731 (antisense eG*eT*dG*dA*dG*dA*dG*d[5mC]*dT*dA*dA*dA*e[5mC]*eA) [compound 435731] | 11%
38 | 435732 (antisense eG*eA*dA*dA*dA*dG*dT*dG*dA*dG*dA*dG*e[5mC]*eT) [compound 435732] | 0%
39 | 435733 (antisense e[5mC]*eT*dG*dA*dA*dT*dT*dG*dT*d[5mC]*dT*dG*eA*eA) [compound 435733] | 5%
40 | 435734 (antisense eA*eT*dG*d[5mC]*dT*dT*d[5mC]*dT*dG*dA*dA*dT*eT*eG) [compound 435734] | 16%
41 | 435735 (antisense eT*eG*dG*dT*dG*dA*dT*dG*d[5mC]*dT*dT*d[5mC]*eT*eG) [compound 435735] | 81%
42 | 435736 (antisense eA*eT*dG*d[5mC]*dA*dT*dG*dG*dT*dG*dA*dT*eG*e[5mC]) [compound 435736] | 50%
43 | 435737 (antisense eG*eT*dG*d[5mC]*dA*dG*d[5mC]*d[5mC]*d[5mC]*dG*dG*d[5mC]*eA*e[5mC]) [compound 435737] | 70%
44 | 435738 (antisense e[5mC]*eA*dG*dA*dG*dG*dA*dT*dG*dA*dG*d[5mC]*eA*e[5mC]) [compound 435738] | 16%
45 | 435739 (antisense e[5mC]*eA*dT*d[5mC]*dT*d[5mC]*dA*dG*dA*dG*dG*dA*eT*eG) [compound 435739] | 5%
46 | 435740 (antisense eT*e[5mC]*dA*dT*dT*dT*d[5mC]*dA*dG*dT*dG*dA*eT*eG) [compound 435740] | 0%
47 | 435741 (antisense eA*eG*dG*dG*dT*dT*d[5mC]*dA*dT*dT*dT*d[5mC]*eA*eG) [compound 435741] | 6%
48 | 435742 (antisense eA*eT*dG*dT*dG*dA*dG*dG*dG*dT*dT*d[5mC]*eA*eT) [compound 435742] | 11%
49 | 435743 (antisense eG*e[5mC]*d[5mC]*dT*d[5mC]*dA*dA*dA*d[5mC]*dA*dT*d[5mC]*eT*eA) [compound 435743] | 40%
50 | 435744 (antisense e[5mC]*eT*dA*d[5mC]*dA*dG*d[5mC]*d[5mC]*dT*d[5mC]*dA*dA*eA*e[5mC]) [compound 435744] | 19%
51 | 435745 (antisense eG*eG*dG*dA*dG*d[5mC]*dT*dA*d[5mC]*dA*dG*d[5mC]*e[5mC]*eT) [compound 435745] | 0%

Source: patent publication US9029337B2, “Modulation of factor 7 expression” (Isis Pharmaceuticals, Inc., priority 2007, dated 2015)
